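Growth conditions: 96-well plates. Treatment: test compound, 48 hours, 5 concentrations. Analysis: linear interpolation between bracketing concentrations; unreached endpoints set to highest concentration. Abbreviation: GI50, concentration required for 50% inhibition of growth.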 Activity calls are given as the source filed them. Cut-off read from the data, not from the text of the source: active = GI50 up to about 1.1 µM and inactive = higher.
Columns and labels:
Assay in all cases: NCI anticancer screen, dose series, 48 h
SF-539 = tested on: SF-539
SF-268 = tested on: SF-268
HCC 2998 = tested on: HCC 2998
HT-29 = tested on: HT-29
NCI-H23 = tested on: NCI-H23
SN12C = tested on: SN12C
U-251 = tested on: U-251
DU-145 = tested on: DU-145
OVCAR-8 = tested on: OVCAR-8
MOLT-4 = tested on: MOLT-4
MDA-MB-231 = tested on: MDA-MB-231
ACHN = tested on: ACHN
UACC-257 = tested on: UACC-257
IGROV-1 = tested on: IGROV-1
A549 = tested on: A549
KM12 = tested on: KM12
MDA-MB-435 = tested on: MDA-MB-435
SNB-19 = tested on: SNB-19
UO-31 = tested on: UO-31
OVCAR-4 = tested on: OVCAR-4

SMILES | GI50 (SF-539) | GI50 (SF-268) | GI50 (HCC 2998) | GI50 (HT-29) | GI50 (NCI-H23) | GI50 (SN12C) | GI50 (U-251) | GI50 (DU-145) | GI50 (OVCAR-8) | GI50 (MOLT-4) | GI50 (MDA-MB-231) | GI50 (ACHN) | GI50 (UACC-257) | GI50 (IGROV-1) | GI50 (A549) | GI50 (KM12) | GI50 (MDA-MB-435) | GI50 (SNB-19) | GI50 (UO-31) | GI50 (OVCAR-4)
[O-][n+]1cn[n+]([O-])c2ccccc21 | 22.3 µM (inactive) | 33.2 µM (inactive) | 27.1 µM (inactive) | 13.6 µM (inactive) | 65.3 µM (inactive) | 38.3 µM (inactive) | 32.4 µM (inactive) | 63.1 µM (inactive) | 18.9 µM (inactive) | 2.91 µM (inactive) | 14.3 µM (inactive) | 12.2 µM (inactive) | 16.9 µM (inactive) | 11.2 µM (inactive) | 39.6 µM (inactive) | 19.5 µM (inactive) | 67.3 µM (inactive) | 84.1 µM (inactive) | 28.3 µM (inactive) | 
CN(C)c1ccc(/C=C2\N=C(N/N=C/c3ccc(N(C)C)cc3)NC2=O)cc1 |  | 80.4 µM (inactive) | > 100 µM (inactive) | 42.7 µM (inactive) | > 100 µM (inactive) | > 100 µM (inactive) | 52.1 µM (inactive) | 28.1 µM (inactive) | 24.8 µM (inactive) | 92 µM (inactive) | 31.4 µM (inactive) | > 100 µM (inactive) | > 100 µM (inactive) | 38.7 µM (inactive) | 92.5 µM (inactive) | 61.1 µM (inactive) | > 100 µM (inactive) | > 100 µM (inactive) | > 100 µM (inactive) | > 100 µM (inactive)
O=C(O)Cn1cc([N+](=O)[O-])c(=O)c2ccccc21 | > 100 µM (inactive) | > 100 µM (inactive) | > 100 µM (inactive) | > 100 µM (inactive) | > 100 µM (inactive) | > 100 µM (inactive) | > 100 µM (inactive) | 57 µM (inactive) | > 100 µM (inactive) | > 100 µM (inactive) | 18.8 µM (inactive) | > 100 µM (inactive) | > 100 µM (inactive) | > 100 µM (inactive) | > 100 µM (inactive) | > 100 µM (inactive) | > 100 µM (inactive) | > 100 µM (inactive) | > 100 µM (inactive) | 
COC(=NCCC1=CCCCC1)OC |  | > 100 µM (inactive) | 22 µM (inactive) | 18.2 µM (inactive) | 58.6 µM (inactive) |  | 71.3 µM (inactive) | > 100 µM (inactive) | 75.7 µM (inactive) | 52.2 µM (inactive) | > 100 µM (inactive) | > 100 µM (inactive) | 39.3 µM (inactive) | 32.8 µM (inactive) | 69.3 µM (inactive) | 78.9 µM (inactive) | 71.6 µM (inactive) | > 100 µM (inactive) | 53 µM (inactive) | > 100 µM (inactive)
CNC(=O)c1cc(NC(=O)N(CCC#N)CCN(C(=O)N[C@@H](Cc2ccccc2)C(=O)N[C@@H](CC(C)C)C(=O)NC)c2ccccc2)ccc1OC | 36 µM (inactive) | 34.2 µM (inactive) |  | > 100 µM (inactive) | > 100 µM (inactive) | > 51.6 µM (inactive) | > 100 µM (inactive) | > 54.8 µM (inactive) | > 91.2 µM (inactive) | 49.4 µM (inactive) | > 38.3 µM (inactive) | > 74.8 µM (inactive) | 19.5 µM (inactive) | 24.4 µM (inactive) | > 100 µM (inactive) | > 62.1 µM (inactive) | > 100 µM (inactive) | > 59.2 µM (inactive) | > 52 µM (inactive) | > 100 µM (inactive)
CCCCCCNC(=O)c1cnc(Cl)cn1 | 17.6 µM (inactive) | 14.3 µM (inactive) |  | 33.1 µM (inactive) | 11.1 µM (inactive) | 13.3 µM (inactive) | 11.5 µM (inactive) | 16.1 µM (inactive) | 12.4 µM (inactive) | 4.82 µM (inactive) | 16.7 µM (inactive) | 2.36 µM (inactive) | 14.3 µM (inactive) | 10.5 µM (inactive) | 13.8 µM (inactive) | 15.9 µM (inactive) | 15.6 µM (inactive) | 17.5 µM (inactive) | 1.85 µM (inactive) | 20.6 µM (inactive)
CCc1n[nH]c(=O)n1CCO | > 100 µM (inactive) |  | > 100 µM (inactive) | > 100 µM (inactive) | > 100 µM (inactive) | > 100 µM (inactive) | > 100 µM (inactive) | > 100 µM (inactive) | > 100 µM (inactive) | > 100 µM (inactive) | > 100 µM (inactive) | > 100 µM (inactive) | > 100 µM (inactive) | > 100 µM (inactive) | > 100 µM (inactive) | > 100 µM (inactive) | > 100 µM (inactive) | > 100 µM (inactive) | > 100 µM (inactive) | > 100 µM (inactive)
Cc1ccc(S(=O)(=O)C2=C([Si](C)(C)C)C3CC2[C@@H]2C4C=CC(CC4)[C@H]32)cc1 (stereo partly drawn) | 25.6 µM (inactive) | 38.1 µM (inactive) | > 100 µM (inactive) | > 100 µM (inactive) |  | > 100 µM (inactive) | 23.9 µM (inactive) | > 100 µM (inactive) | > 100 µM (inactive) | > 100 µM (inactive) | 26.5 µM (inactive) | 99.5 µM (inactive) | > 100 µM (inactive) | 85.5 µM (inactive) | > 100 µM (inactive) | > 100 µM (inactive) | > 100 µM (inactive) | 23.8 µM (inactive) | > 100 µM (inactive) | > 100 µM (inactive)
c1ccc2cc(NCNc3ccc4ccccc4c3)ccc2c1 | 29.3 µM (inactive) | 38.8 µM (inactive) |  | 19 µM (inactive) | 12.2 µM (inactive) | 9.53 µM (inactive) | 23.3 µM (inactive) | 14.4 µM (inactive) | 17.5 µM (inactive) | 0.785 µM (active) | 2.51 µM (inactive) | 16.3 µM (inactive) | 8.73 µM (inactive) | 7.52 µM (inactive) | 18.3 µM (inactive) | 13.6 µM (inactive) | 1.78 µM (inactive) | 28.1 µM (inactive) | 13.7 µM (inactive) | 12.5 µM (inactive)
CC(C)(NO)/C(=N\O)c1ccccc1 |  | > 10 µM (inactive) | > 10 µM (inactive) | > 10 µM (inactive) | > 10 µM (inactive) | > 10 µM (inactive) | > 10 µM (inactive) | > 10 µM (inactive) | > 10 µM (inactive) | > 10 µM (inactive) | > 10 µM (inactive) | > 10 µM (inactive) | > 10 µM (inactive) |  |  | > 10 µM (inactive) | > 10 µM (inactive) | > 10 µM (inactive) | > 10 µM (inactive) | > 10 µM (inactive)
O=C1C=CC(=O)N1n1c(-c2ccccc2)n[nH]c1=O | > 100 µM (inactive) | > 100 µM (inactive) | > 100 µM (inactive) | > 100 µM (inactive) | > 100 µM (inactive) | > 100 µM (inactive) | > 100 µM (inactive) | > 100 µM (inactive) | > 100 µM (inactive) | > 100 µM (inactive) | > 100 µM (inactive) |  | > 100 µM (inactive) | > 100 µM (inactive) | > 100 µM (inactive) |  | > 100 µM (inactive) |  |  | > 100 µM (inactive)
O=C1C2CC=CCC2C(=O)N1n1c(Cc2ccc(Cl)cc2)n[nH]c1=O (stereo not drawn) |  | > 100 µM (inactive) | > 100 µM (inactive) | > 100 µM (inactive) | > 100 µM (inactive) | > 100 µM (inactive) | > 100 µM (inactive) | > 100 µM (inactive) | > 100 µM (inactive) | > 100 µM (inactive) | > 100 µM (inactive) | > 100 µM (inactive) | > 100 µM (inactive) | > 100 µM (inactive) | > 100 µM (inactive) | > 100 µM (inactive) | > 100 µM (inactive) |  | > 100 µM (inactive) | > 100 µM (inactive)
COc1ccc2c(c1)OCC1(O)Cc3ccccc3OC21 (stereo not drawn) | > 100 µM (inactive) | > 100 µM (inactive) | > 100 µM (inactive) | > 100 µM (inactive) | > 100 µM (inactive) | > 100 µM (inactive) | > 100 µM (inactive) | > 100 µM (inactive) | > 100 µM (inactive) | 78.9 µM (inactive) | > 100 µM (inactive) | > 100 µM (inactive) | > 100 µM (inactive) | > 100 µM (inactive) | > 100 µM (inactive) | > 100 µM (inactive) | > 100 µM (inactive) |  | > 100 µM (inactive) | 49.3 µM (inactive)
COc1ccc(-n2cnc3c(NC(CCSC)C(=O)O)ncnc32)cc1 (stereo not drawn) |  | > 100 µM (inactive) | > 100 µM (inactive) | > 100 µM (inactive) | > 100 µM (inactive) | > 100 µM (inactive) | > 100 µM (inactive) | > 100 µM (inactive) | > 100 µM (inactive) | > 100 µM (inactive) | > 100 µM (inactive) | > 100 µM (inactive) | > 100 µM (inactive) | > 100 µM (inactive) | > 100 µM (inactive) | > 100 µM (inactive) | > 100 µM (inactive) | > 100 µM (inactive) | > 100 µM (inactive) | > 100 µM (inactive)
Cc1ccc(-c2n[nH]c(=O)n2NC(=O)c2ccccc2C(=O)O)cc1 | > 100 µM (inactive) | > 100 µM (inactive) | > 100 µM (inactive) | > 100 µM (inactive) | > 100 µM (inactive) | > 100 µM (inactive) | > 100 µM (inactive) | > 100 µM (inactive) | > 100 µM (inactive) | > 100 µM (inactive) | > 100 µM (inactive) | > 100 µM (inactive) | > 100 µM (inactive) | > 100 µM (inactive) | > 100 µM (inactive) | > 100 µM (inactive) | > 100 µM (inactive) | > 100 µM (inactive) | > 100 µM (inactive) | 
